Test results reported in patent US20260092071A1, “COMPOUNDS AND COMPOSITIONS AS SMARCA2/4 DEGRADERS AND USES THEREOF” (REGENTS OF THE UNIVERSITY OF MICHIGAN, priority 2022, published 2026).

Columns and labels:
[1] = biological target: SMARCA2 (Homo sapiens, UniProt P51531); test: HiBit assay in engineered HT1080 CRISPR knock-in cell, 6 hrs (B series), SMARCA2; format: cell-based; details: 6 hrs incubation; for DC50: HT1080 CRISPR knock-in cells, read-out: SMARC A2 HT1080 HiBit DC50; for Dmax: HT-1080, HT1080 CRISPR knock-in cells, read-out: SMARC A2 HT1080 HiBit Dmax (%)
Sequence of SMARCA2 (P51531 whole entry): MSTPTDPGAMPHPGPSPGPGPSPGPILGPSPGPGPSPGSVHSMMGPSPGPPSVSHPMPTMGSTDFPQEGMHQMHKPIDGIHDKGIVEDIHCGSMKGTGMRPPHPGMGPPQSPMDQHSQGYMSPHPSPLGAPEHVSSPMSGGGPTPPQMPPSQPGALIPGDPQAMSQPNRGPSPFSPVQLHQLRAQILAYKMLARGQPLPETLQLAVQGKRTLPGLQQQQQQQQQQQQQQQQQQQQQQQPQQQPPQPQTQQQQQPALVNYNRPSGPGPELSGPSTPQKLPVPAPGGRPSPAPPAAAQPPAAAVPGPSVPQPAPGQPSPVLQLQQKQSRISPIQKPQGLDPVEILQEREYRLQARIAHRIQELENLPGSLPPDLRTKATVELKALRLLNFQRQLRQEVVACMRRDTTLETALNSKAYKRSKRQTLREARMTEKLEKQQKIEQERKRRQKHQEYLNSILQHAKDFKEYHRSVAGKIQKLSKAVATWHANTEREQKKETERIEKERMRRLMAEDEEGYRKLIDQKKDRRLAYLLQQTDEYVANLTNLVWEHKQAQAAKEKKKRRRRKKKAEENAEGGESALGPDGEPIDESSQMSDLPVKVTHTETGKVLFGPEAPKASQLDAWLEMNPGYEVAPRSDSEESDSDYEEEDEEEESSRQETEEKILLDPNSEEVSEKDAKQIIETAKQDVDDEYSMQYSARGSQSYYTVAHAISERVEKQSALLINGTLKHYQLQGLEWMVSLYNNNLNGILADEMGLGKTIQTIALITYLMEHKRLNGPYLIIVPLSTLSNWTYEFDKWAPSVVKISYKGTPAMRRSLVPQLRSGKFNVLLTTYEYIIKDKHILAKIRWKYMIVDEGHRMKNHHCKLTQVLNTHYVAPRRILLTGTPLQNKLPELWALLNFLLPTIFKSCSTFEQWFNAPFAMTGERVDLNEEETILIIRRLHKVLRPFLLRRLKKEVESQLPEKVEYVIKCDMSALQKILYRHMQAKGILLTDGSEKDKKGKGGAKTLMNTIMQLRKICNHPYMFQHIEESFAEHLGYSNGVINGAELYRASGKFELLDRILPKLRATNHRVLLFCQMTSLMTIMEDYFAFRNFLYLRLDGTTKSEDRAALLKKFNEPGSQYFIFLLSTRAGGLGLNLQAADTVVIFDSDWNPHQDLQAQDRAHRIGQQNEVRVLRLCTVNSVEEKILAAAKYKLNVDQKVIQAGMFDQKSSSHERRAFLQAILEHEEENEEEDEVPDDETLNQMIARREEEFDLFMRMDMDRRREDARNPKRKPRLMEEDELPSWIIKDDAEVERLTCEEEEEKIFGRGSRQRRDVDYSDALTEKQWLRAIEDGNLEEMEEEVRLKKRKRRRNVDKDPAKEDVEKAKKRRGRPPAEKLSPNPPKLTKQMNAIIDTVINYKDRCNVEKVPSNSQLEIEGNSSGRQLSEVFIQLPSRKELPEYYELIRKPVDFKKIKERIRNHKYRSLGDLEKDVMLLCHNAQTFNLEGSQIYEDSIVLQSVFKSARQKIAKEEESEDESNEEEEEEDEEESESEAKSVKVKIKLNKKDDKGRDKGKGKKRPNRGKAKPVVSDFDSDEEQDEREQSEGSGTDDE
How it was run: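 Protein abundance is measured in HiBiT-tagged HT1080 CRISPR knock-in cells after a 6 hr compound treatment (0.1% DMSO) by lytic Nano-Glo HiBiT luminescence.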

[2] = biological target: SMARCA4 (Homo sapiens, UniProt P51532); test: HiBit assay in engineered HT1080 CRISPR knock-in cell, 6 hrs (B series), SMARCA4; format: cell-based; details: 6 hrs incubation; for DC50: HT1080 CRISPR knock-in cells, read-out: SMARC A4 HT1080 HiBit DC50; for Dmax: HT-1080, HT1080 CRISPR knock-in cells, read-out: SMARC A4 HT1080 HiBit Dmax(%)
Sequence of SMARCA4 (P51532 whole entry): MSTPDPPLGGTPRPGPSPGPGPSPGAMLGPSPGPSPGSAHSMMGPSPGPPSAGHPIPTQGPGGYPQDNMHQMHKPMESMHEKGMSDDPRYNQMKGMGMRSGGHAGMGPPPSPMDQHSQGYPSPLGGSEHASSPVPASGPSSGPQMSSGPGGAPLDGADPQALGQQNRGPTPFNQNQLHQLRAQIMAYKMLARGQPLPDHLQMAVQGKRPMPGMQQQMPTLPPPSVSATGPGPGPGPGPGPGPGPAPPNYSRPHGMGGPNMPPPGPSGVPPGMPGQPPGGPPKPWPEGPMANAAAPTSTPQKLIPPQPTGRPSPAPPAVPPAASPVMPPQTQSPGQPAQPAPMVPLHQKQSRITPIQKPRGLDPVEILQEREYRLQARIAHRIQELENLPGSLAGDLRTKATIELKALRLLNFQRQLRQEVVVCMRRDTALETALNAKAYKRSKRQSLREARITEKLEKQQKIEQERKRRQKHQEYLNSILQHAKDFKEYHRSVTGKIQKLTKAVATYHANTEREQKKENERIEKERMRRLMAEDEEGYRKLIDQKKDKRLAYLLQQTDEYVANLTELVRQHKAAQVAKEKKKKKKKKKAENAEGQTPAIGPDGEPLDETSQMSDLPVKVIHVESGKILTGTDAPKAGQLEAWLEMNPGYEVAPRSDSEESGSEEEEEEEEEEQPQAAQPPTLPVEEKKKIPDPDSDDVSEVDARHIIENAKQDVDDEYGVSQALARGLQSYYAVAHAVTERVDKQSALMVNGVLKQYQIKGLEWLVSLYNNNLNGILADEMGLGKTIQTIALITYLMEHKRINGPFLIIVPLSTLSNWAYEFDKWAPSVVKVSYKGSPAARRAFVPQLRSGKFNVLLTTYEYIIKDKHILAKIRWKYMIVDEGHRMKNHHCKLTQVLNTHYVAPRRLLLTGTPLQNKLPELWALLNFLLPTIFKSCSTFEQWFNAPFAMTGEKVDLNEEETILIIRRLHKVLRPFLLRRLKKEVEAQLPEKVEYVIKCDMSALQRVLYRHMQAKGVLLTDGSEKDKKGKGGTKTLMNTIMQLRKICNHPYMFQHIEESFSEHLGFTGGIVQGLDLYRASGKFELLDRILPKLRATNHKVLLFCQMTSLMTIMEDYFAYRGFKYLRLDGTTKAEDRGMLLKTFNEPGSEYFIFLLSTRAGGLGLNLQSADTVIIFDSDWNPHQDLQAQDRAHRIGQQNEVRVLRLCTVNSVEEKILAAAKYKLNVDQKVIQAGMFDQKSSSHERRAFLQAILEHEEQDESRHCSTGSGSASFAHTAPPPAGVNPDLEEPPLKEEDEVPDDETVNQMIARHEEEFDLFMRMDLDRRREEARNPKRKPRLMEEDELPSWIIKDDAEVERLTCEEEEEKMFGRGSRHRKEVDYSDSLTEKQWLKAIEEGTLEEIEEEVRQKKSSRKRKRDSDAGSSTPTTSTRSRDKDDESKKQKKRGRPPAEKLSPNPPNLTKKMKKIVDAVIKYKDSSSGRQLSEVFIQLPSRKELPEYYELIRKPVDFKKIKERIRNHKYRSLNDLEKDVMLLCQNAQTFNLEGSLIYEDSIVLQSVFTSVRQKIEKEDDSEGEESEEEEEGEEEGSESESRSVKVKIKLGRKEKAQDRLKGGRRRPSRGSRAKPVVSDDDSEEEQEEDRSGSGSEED
How it was run: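 Using a 6 hr treatment window at 37° C and 5% CO2, tagged HT1080 knock-in cells were exposed to test compounds with DMSO vehicle held at 0.1%. Signal came from lytic LgBiT/substrate reagent added after incubation, with control wells lacking LgBiT, and was read as luminescence.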

| SMILES | DC50 [1] [nM] | Dmax [1] [%] | DC50 [2] [nM] | Dmax [2] [%] |
| --- | --- | --- | --- | --- |
| Cc1ncsc1-c1ccc([C@H](C)NC(=O)[C@@H]2C[C@@H](O)CN2C(=O)[C@H](C(C)C)n2cc(CC3CCC(N4CCC(c5cccc6c5C(C)(C)c5nc(=O)c7c(Cl)cccc7n5-6)CC4)CC3)nn2)cc1 (stereo partly drawn) [Compound B132, (2S,4R)-1-((S)-2-(4-((4-(4-(4-chloro-7,7-dimethyl-5-oxo-5,7-dihydroindolo[1,2-a]quinazolin-8-yl)piperidin-1-yl)cyclohexyl)methyl)-1H-1,2,3-triazol-1-yl)-3-methylbutanoyl)-4-hydroxy-N—((S)-1-(4-(4-methylthiazol-5-yl)phenyl)ethyl)pyrrolidine-2-carboxamide] | < 100 | > 90 | 100 to 500 | 70 to 90 |
| Cc1nc(C)c(-c2ccc([C@H](C)NC(=O)[C@@H]3C[C@@H](O)CN3C(=O)[C@@H](n3cc([C@H]4CC[C@H](CN5CCN(c6ccc7c(c6)-n6c(nc(=O)c8c(Cl)cccc86)C7(C)C)CC5)CC4)nn3)C(C)(C)C)cc2)s1 [Compound B133, (2S,4R)-1-((S)-2-(4-((1r,4S)-4-((4-(4-chloro-7,7-dimethyl-5-oxo-5,7-dihydroindolo[1,2-a]quinazolin-10-yl)piperazin-1-yl)methyl)cyclohexyl)-1H-1,2,3-triazol-1-yl)-3,3-dimethylbutanoyl)-N-((S)-1-(4-(2,4-dimethylthiazol-5-yl)phenyl)ethyl)-4-hydroxypyrrolidine-2-carboxamide] | < 100 | > 90 | < 100 | 70 to 90 |
| CC(=O)c1ccc([C@H](C)NC(=O)[C@@H]2C[C@@H](O)CN2C(=O)[C@H](C(C)C)n2cc([C@H]3CC[C@H](CN4CCC(c5ccc6c(c5)-n5c(nc(=O)c7c(Cl)cccc75)C6(C)C)CC4)CC3)nn2)cc1 [Compound B134, (2S,4R)-N-((S)-1-(4-acetylphenyl)ethyl)-1-((S)-2-(4-((1r,4S)-4-((4-(4-chloro-7,7-dimethyl-5-oxo-5,7-dihydroindolo[1,2-a]quinazolin-10-yl)piperidin-1-yl)methyl)cyclohexyl)-1H-1,2,3-triazol-1-yl)-3-methylbutanoyl)-4-hydroxypyrrolidine-2-carboxamide] | < 100 | > 90 | < 100 | 50 to 69 |
| C[C@H](NC(=O)[C@@H]1C[C@@H](O)CN1C(=O)[C@@H](n1cc([C@H]2CC[C@H](CN3CCN(c4ccc5c(c4)-n4c(nc(=O)c6c(Cl)cccc64)C5(C)C)CC3)CC2)nn1)C(C)(C)C)c1ccc(-c2scnc2C#CCN2CCOCC2)cc1 [Compound B135, (2S,4R)-1-((S)-2-(4-((1r,4S)-4-((4-(4-chloro-7,7-dimethyl-5-oxo-5,7-dihydroindolo[1,2-a]quinazolin-10-yl)piperazin-1-yl)methyl)cyclohexyl)-1H-1,2,3-triazol-1-yl)-3,3-dimethylbutanoyl)-4-hydroxy-N-((S)-1-(4-(4-(3-morpholinoprop-1-yn-1-yl)thiazol-5-yl)phenyl)ethyl)pyrrolidine-2-carboxamide] | < 100 | > 90 | < 100 | 70 to 90 |
| CC(C)[C@@H](C(=O)N1C[C@H](O)C[C@H]1C(=O)N[C@@H](C)c1ccc(-c2scnc2C#CCN2CCOCC2)cc1)n1cc([C@H]2CC[C@H](CN3CCN(c4ccc5c(c4)-n4c(nc(=O)c6c(Cl)cccc64)C5(C)C)CC3)CC2)nn1 [Compound B136, (2S,4R)-1-((S)-2-(4-((1r,4S)-4-((4-(4-chloro-7,7-dimethyl-5-oxo-5,7-dihydroindolo[1,2-a]quinazolin-10-yl)piperazin-1-yl)methyl)cyclohexyl)-1H-1,2,3-triazol-1-yl)-3-methylbutanoyl)-4-hydroxy-N-((S)-1-(4-(4-(3-morpholinoprop-1-yn-1-yl)thiazol-5-yl)phenyl)ethyl)pyrrolidine-2-carboxamide] | < 100 | > 90 | < 100 | 70 to 90 |
| Cc1ncsc1-c1ccc([C@H](C)NC(=O)[C@@H]2C[C@@H](O)CN2C(=O)[C@H](C(C)C)n2cc(C3CCC(c4cccc5c4C(C)(C)c4nc(=O)c6c(Cl)cccc6n4-5)CC3)nn2)cc1 (stereo partly drawn) [Compound B137, (2S,4R)-1-((S)-2-(4-(4-(4-chloro-7,7-dimethyl-5-oxo-5,7-dihydroindolo[1,2-a]quinazolin-8-yl)cyclohexyl)-1H-1,2,3-triazol-1-yl)-3-methylbutanoyl)-4-hydroxy-N-((S)-1-(4-(4-methylthiazol-5-yl)phenyl)ethyl)pyrrolidine-2-carboxamide] | < 100 | > 90 | < 100 | < 50 |
| Cc1ncsc1-c1ccc([C@H](CN2CCOCC2)NC(=O)[C@@H]2C[C@@H](O)CN2C(=O)[C@@H](c2cc(O[C@H]3CC[C@H](CN4CCN(c5ccc6c(c5)-n5c(nc(=O)c7c(Cl)cccc75)C65CCCCC5)CC4)CC3)no2)C(C)C)cc1 [Compound B138, (2S,4R)-1-((R)-2-(3-(((1r,4R)-4-((4-(4′-chloro-5′-oxo-5′H-spiro[cyclohexane-1,7′-indolo[1,2-a]quinazolin]-10′-yl)piperazin-1-yl)methyl)cyclohexyl)oxy)isoxazol-5-yl)-3-methylbutanoyl)-4-hydroxy-N-((R)-1-(4-(4-methylthiazol-5-yl)phenyl)-2-morpholinoethyl)pyrrolidine-2-carboxamide] | < 100 | > 90 | < 100 | > 90 |
| Cc1cc(C(C(=O)N2C[C@H](O)C[C@H]2C(=O)N[C@@H](CN2CCC(CN3CCC(c4cccc5c4C(C)(C)c4nc(=O)c6c(Cl)cccc6n4-5)CC3)CC2)c2ccc(-c3scnc3C)cc2)C(C)C)on1 (stereo partly drawn) [Compound B139, (2S,4R)—N—((R)-2-(4-((4-(4-chloro-7,7-dimethyl-5-oxo-5,7-dihydroindolo[1,2-a]quinazolin-8-yl)piperidin-1-yl)methyl)piperidin-1-yl)-1-(4-(4-methylthiazol-5-yl)phenyl)ethyl)-4-hydroxy-1-(3-methyl-2-(3-methylisoxazol-5-yl)butanoyl)pyrrolidine-2-carboxamide] | < 100 | > 90 | < 100 | 70 to 90 |
| C[C@H](NC(=O)[C@@H]1C[C@@H](O)CN1C(=O)[C@@H](n1cc(C2CCC(CN3CCN(c4ccc5c(c4)-n4c(nc(=O)c6c(Cl)cccc64)C54CCCCC4)CC3)CC2)nn1)C(C)(C)C)c1ccc(-c2scnc2C#CCN2CCOCC2)cc1 (stereo partly drawn) [Compound B140, (2S,4R)-1-((S)-2-(4-((1s,4R)-4-((4-(4′-chloro-5′-oxo-5′H-spiro[cyclohexane-1,7′-indolo[1,2-a]quinazolin]-10′-yl)piperazin-1-yl)methyl)cyclohexyl)-1H-1,2,3-triazol-1-yl)-3,3-dimethylbutanoyl)-4-hydroxy-N-((S)-1-(4-(4-(3-morpholinoprop-1-yn-1-yl)thiazol-5-yl)phenyl)ethyl)pyrrolidine-2-carboxamide] | < 100 | > 90 | < 100 | 50 to 69 |
| C[C@H](NC(=O)[C@@H]1C[C@@H](O)CN1C(=O)[C@@H](n1cc([C@H]2CC[C@H](CN3CCC(c4ccc5c(c4)-n4c(nc(=O)c6c(Cl)cccc64)C5(C)C)CC3)CC2)nn1)C(C)(C)C)c1ccc(-c2scnc2C#N)cc1 [Compound B141, (2S,4R)-1-((S)-2-(4-((1r,4S)-4-((4-(4-chloro-7,7-dimethyl-5-oxo-5,7-dihydroindolo[1,2-a]quinazolin-10-yl)piperidin-1-yl)methyl)cyclohexyl)-1H-1,2,3-triazol-1-yl)-3,3-dimethylbutanoyl)-N-((S)-1-(4-(4-cyanothiazol-5-yl)phenyl)ethyl)-4-hydroxypyrrolidine-2-carboxamide] | < 100 | > 90 | 100 to 500 | < 50 |
| Cc1ncsc1-c1ccc2c(NC(=O)[C@@H]3C[C@@H](O)CN3C(=O)[C@@H](n3cc([C@H]4CC[C@H](CN5CCC(c6ccc7c(c6)-n6c(nc(=O)c8c(Cl)cccc86)C7(C)C)CC5)CC4)nn3)C(C)(C)C)nccc2c1 [Compound B143, (2S,4R)-1-((S)-2-(4-((1r,4S)-4-((4-(4-chloro-7,7-dimethyl-5-oxo-5,7-dihydroindolo[1,2-a]quinazolin-10-yl)piperidin-1-yl)methyl)cyclohexyl)-1H-1,2,3-triazol-1-yl)-3,3-dimethylbutanoyl)-4-hydroxy-N-(6-(4-methylthiazol-5-yl)isoquinolin-1-yl)pyrrolidine-2-carboxamide] | 100 to 500 | 70 to 90 | > 1000 | < 50 |
| Cc1cc(C(C(=O)N2C[C@H](O)C[C@H]2C(=O)N[C@@H](C)c2ccc(-c3scnc3C#CCN3CCC(c4ccc5c(c4)C(C)(C)c4nc(=O)c6c(Cl)cccc6n4-5)CC3)cc2)C(C)C)on1 (stereo partly drawn) [Compound B144, (2S,4R)—N—((S)-1-(4-(4-(3-(4-(4-chloro-7,7-dimethyl-5-oxo-5,7-dihydroindolo[1,2-a]quinazolin-9-yl)piperidin-1-yl)prop-1-yn-1-yl)thiazol-5-yl)phenyl)ethyl)-4-hydroxy-1-(3-methyl-2-(3-methylisoxazol-5-yl)butanoyl)pyrrolidine-2-carboxamide] | 100 to 500 | 50 to 69 | < 100 | 50 to 69 |
